Among the test systems are A498 renal; ACHN renal; CCRF-CEM leukemia; COLO 205 colon; KM12 colon; LOX IMVI melanoma; NCI-H23 lung; RXF 393 renal; SK-MEL-28 melanoma; SN12C renal.
Common to all, as to experiment: NCI-60 cell line screen, 48 h

“And” between values parts separate entries of the source, which are not always exact repeats. Equal entries are not always repeated.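 Step 1: Grow cells in 96-well plates. Step 2: Expose to compound for 48 hours at 5 concentrations. Step 3: Interpolate endpoints linearly; if unreached, use highest concentration. Here, GI50 denotes the concentration required for 50% inhibition of growth. Definition used: TGI = concentration required for complete inhibition of growth.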

Regarding `Cc1nn(-c2ccc(Cl)cc2)c2ncnc(N/N=C/c3ccccc3O)c12`, the GI50 in the assay on A498 renal is 12.3 µM and 3.23 µM; with ACHN renal, 0.362 µM and 0.322 µM; in the assay with CCRF-CEM leukemia, 0.342 µM and 0.23 µM; in the assay with COLO 205 colon, 0.776 µM and 0.398 µM; in the assay with KM12 colon, 0.53 µM and 0.385 µM; with LOX IMVI melanoma it was 0.389 µM and 0.251 µM. Moreover, the GI50 in the assay on NCI-H23 lung was 2.05 µM and 0.721 µM; in the assay with RXF 393 renal it was 1.97 µM and 0.683 µM; in the assay with SK-MEL-28 melanoma it was 1.56 µM and 0.494 µM; with SN12C renal, 0.804 µM and 0.473 µM. Further, the TGI in the assay with A498 renal is 70.1 µM and 23.5 µM; with ACHN renal it was 12 µM and 10.5 µM; in the assay on CCRF-CEM leukemia, greater than 100 µM; in the assay on COLO 205 colon, > 46.2 µM and 27.6 µM; in the assay on KM12 colon, greater than 100 µM; with LOX IMVI melanoma, 11.9 µM and 10.2 µM. Moreover, the TGI in the assay with NCI-H23 lung was greater than 55 µM; with RXF 393 renal it was 21.7 µM and 11.3 µM; with SK-MEL-28 melanoma, greater than 100 µM; in the assay with SN12C renal it was greater than 91.7 µM.

On to `Cc1ccc2c(-c3ccnc(Nc4ccc5c(c4)OCCO5)n3)c(-c3ccc(C(F)(F)F)cc3)nn2n1`, for which the GI50 is 2.13 µM in the assay with A498 renal; 16.5 µM in the assay on ACHN renal; 11.7 µM in the assay on CCRF-CEM leukemia; 3.17 µM with COLO 205 colon; 14.1 µM in the assay with KM12 colon; 1.5 µM in the assay with LOX IMVI melanoma. For the same compound, the GI50 is 14.3 µM with NCI-H23 lung, 4.39 µM in the assay on RXF 393 renal, greater than 25 µM with SK-MEL-28 melanoma and 5.26 µM in the assay on SN12C renal. Besides, the TGI with A498 renal is 18 µM; in the assay with ACHN renal, greater than 25 µM; in the assay with CCRF-CEM leukemia, greater than 25 µM; in the assay with COLO 205 colon, greater than 25 µM; in the assay on KM12 colon, greater than 25 µM; in the assay with LOX IMVI melanoma, 6.68 µM. In addition, the TGI with NCI-H23 lung, in the assay on RXF 393 renal, in the assay with SK-MEL-28 melanoma and in the assay on SN12C renal was greater than 25 µM in each case.

On to `CNC(=O)c1ncccc1Nc1nc(Nc2cc3c(cc2OC)CCCN3C(=O)CN(C)C)nc2[nH]ccc12`, for which the GI50 is 1.18 µM in the assay on A498 renal; 3.23 µM with ACHN renal; 0.568 µM in the assay with CCRF-CEM leukemia; 0.127 µM in the assay on COLO 205 colon; 0.728 µM with KM12 colon; 1.26 µM in the assay with LOX IMVI melanoma. Besides, the GI50 in the assay with NCI-H23 lung is 0.476 µM; in the assay with RXF 393 renal, 0.974 µM; with SK-MEL-28 melanoma, 3.18 µM; with SN12C renal it was 3.36 µM. In addition, the TGI was determined as 5.46 µM in the assay on A498 renal; 6.72 µM in the assay with ACHN renal; 2.96 µM in the assay on CCRF-CEM leukemia; 1.18 µM in the assay with COLO 205 colon; 3.04 µM with KM12 colon; 4.77 µM in the assay with LOX IMVI melanoma. In addition, the TGI was 3.07 µM in the assay on NCI-H23 lung, 3.8 µM with RXF 393 renal, 6.77 µM with SK-MEL-28 melanoma and 7.37 µM in the assay on SN12C renal.

In the case of `Cc1nc2ccccc2nc1CC(=O)C(=O)Nc1ccc(Cl)cc1Cl`, the TGI in the assay on A498 renal, with ACHN renal, in the assay with CCRF-CEM leukemia, with COLO 205 colon, in the assay with KM12 colon and in the assay on LOX IMVI melanoma was greater than 100 µM in each case. In addition, the TGI in the assay with NCI-H23 lung, in the assay with RXF 393 renal, in the assay on SK-MEL-28 melanoma and in the assay on SN12C renal was greater than 100 µM in each case.

`Cc1cc(O)c2c(c1)C(=O)C=CC2=O`: the TGI in the assay with A498 renal is 40.7 µM and 75.2 µM; with ACHN renal it was 8.57 µM and 15.6 µM; with CCRF-CEM leukemia it was 0.564 µM and 1.19 µM; with COLO 205 colon, 7.97 µM and > 21.2 µM; with KM12 colon, 32.9 µM and 32.5 µM; in the assay on LOX IMVI melanoma, 12.6 µM and > 100 µM. The TGI with NCI-H23 lung is 27.9 µM and 23 µM; in the assay with RXF 393 renal, 9.57 µM and 9.17 µM; in the assay with SK-MEL-28 melanoma, 35.5 µM and 23.6 µM; in the assay with SN12C renal it was 21.9 µM and 28.6 µM. Further, the GI50 was 4.43 µM and 4 µM in the assay with ACHN renal; 20.4 µM and 8.89 µM with SK-MEL-28 melanoma.

In the case of `CC1=C(C(=O)Nc2ccccc2)C(c2ccc(N(C)C)cc2)C(C(=O)Nc2ccccc2)=C(C)N1`, the TGI with A498 renal was greater than 100 µM; with ACHN renal, greater than 73.6 µM; in the assay with CCRF-CEM leukemia, 57.7 µM; in the assay on COLO 205 colon it was 17.3 µM; in the assay with KM12 colon, 27.2 µM; in the assay on LOX IMVI melanoma, greater than 100 µM. Moreover, the TGI with NCI-H23 lung was greater than 100 µM; in the assay on RXF 393 renal it was greater than 100 µM; with SK-MEL-28 melanoma, 36.6 µM; in the assay on SN12C renal, greater than 100 µM.

On to `OC1(c2ccc(Cl)c(C(F)(F)F)c2)CCN(CCCC(c2ccc(F)cc2)c2ccc(F)cc2)CC1`, for which the GI50 in the assay with A498 renal is 0.515 µM; with ACHN renal, 0.87 µM; with CCRF-CEM leukemia, 1.04 µM; in the assay on COLO 205 colon it was 0.856 µM; in the assay on KM12 colon, 0.864 µM; in the assay on LOX IMVI melanoma it was 0.821 µM. For the same compound, the GI50 in the assay with NCI-H23 lung is 0.83 µM; in the assay with RXF 393 renal, 0.638 µM; with SK-MEL-28 melanoma, 0.889 µM; in the assay with SN12C renal, 0.831 µM. The TGI came to 1.12 µM in the assay with A498 renal; 1.63 µM in the assay with ACHN renal; 2.63 µM in the assay with CCRF-CEM leukemia; 1.57 µM with COLO 205 colon; 1.62 µM in the assay on KM12 colon; 1.52 µM in the assay with LOX IMVI melanoma. The TGI in the assay with NCI-H23 lung was found to be 1.62 µM; with RXF 393 renal it was 1.27 µM; in the assay on SK-MEL-28 melanoma, 1.58 µM; with SN12C renal, 1.54 µM.

`COc1cc2c(cc1Nc1nc(N3CCc4ccccc43)c3cc[nH]c3n1)N(C(=O)CN(C)C)CC2`: the GI50 in the assay on A498 renal was 8.43 µM; in the assay with ACHN renal it was 4.4 µM; in the assay with CCRF-CEM leukemia it was 0.611 µM; in the assay with COLO 205 colon it was 5.4 µM; in the assay with KM12 colon it was 1.49 µM; with LOX IMVI melanoma it was 1.59 µM. In addition, the GI50 with NCI-H23 lung is 4.98 µM; with RXF 393 renal it was 3.55 µM; with SK-MEL-28 melanoma, 1.4 µM; in the assay on SN12C renal, 3.05 µM. For the same compound, the TGI was determined as 14.1 µM with A498 renal; 8.82 µM with ACHN renal; 1.49 µM in the assay on CCRF-CEM leukemia; 14.3 µM with COLO 205 colon; 2.81 µM with KM12 colon; 10.2 µM in the assay with LOX IMVI melanoma. Besides, the TGI with NCI-H23 lung was found to be 14.6 µM; in the assay on RXF 393 renal, 8.89 µM; in the assay with SK-MEL-28 melanoma, 3.38 µM; in the assay on SN12C renal, 7.47 µM.

The values are drawn from PubChem BioAssay (NCI).
